Laboratory results taken from ChEMBL document CHEMBL2434921, “New synthetic aliphatic sulfonamido-quaternary ammonium salts as anticancer chemotherapeutic agents” (2013).
The source made the active and inactive calls. No cut-off for these calls is given here.

Columns and labels:
NCI-H23 [1] = assay: Growth inhibition of human NCI-H23 cells after 48 hrs by SRB assay; format: functional; conditions: NCI-H23, 48 h
HCT-15 [2] = assay: Growth inhibition of human HCT15 cells after 48 hrs by SRB assay; format: functional; conditions: HCT-15, 48 h
[3] = molecular target: Rho-related GTP-binding protein RhoB (Homo sapiens) (UniProt P62745); assay: Transactivation of RhoB (unknown origin) transfected in human HeLa cells at 5 uM measured over 10 secs by dual luciferase reporter gene assay; format: cell-based
Sequence of Rho-related GTP-binding protein RhoB (Homo sapiens) (P62745 whole entry): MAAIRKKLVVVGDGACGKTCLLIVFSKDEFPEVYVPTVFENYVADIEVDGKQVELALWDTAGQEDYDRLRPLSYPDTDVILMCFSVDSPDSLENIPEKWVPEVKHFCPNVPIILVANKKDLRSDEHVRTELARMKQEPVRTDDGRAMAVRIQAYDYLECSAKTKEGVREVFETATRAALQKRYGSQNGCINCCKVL

NUGC-3 [4] = assay: Growth inhibition of human NUGC3 cells after 48 hrs by SRB assay; format: functional; conditions: NUGC-3, 48 h
ACHN [5] = assay: Growth inhibition of human ACHN cells after 48 hrs by SRB assay; format: functional
MDA-MB-231 [6] = assay: Growth inhibition of human MDA-MB-231 cells after 48 hrs by SRB assay; format: functional; conditions: MDA-MB-231, 48 h
PC-3 [7] = assay: Growth inhibition of human PC3 cells after 48 hrs by SRB assay; format: functional; conditions: PC-3, 48 h
PC-3 [8] = assay: Growth of human PC3 cells at 10 uM after 48 hrs by SRB assay; conditions: PC-3, 48 h
NUGC-3 [9] = assay: Growth of human NUGC3 cells at 1 uM after 48 hrs by SRB assay; conditions: NUGC-3, 48 h
ACHN [10] = assay: Growth of human ACHN cells at 10 uM after 48 hrs by SRB assay
HCT-15 [11] = assay: Growth of human HCT15 cells at 3 uM after 48 hrs by SRB assay; conditions: HCT-15, 48 h
ACHN [12] = assay: Growth of human ACHN cells at 0.1 uM after 48 hrs by SRB assay
ACHN [13] = assay: Growth of human ACHN cells at 0.3 uM after 48 hrs by SRB assay
NUGC-3 [14] = assay: Growth of human NUGC3 cells at 0.1 uM after 48 hrs by SRB assay; conditions: NUGC-3, 48 h
NUGC-3 [15] = assay: Growth of human NUGC3 cells at 0.3 uM after 48 hrs by SRB assay; conditions: NUGC-3, 48 h
HCT-15 [16] = assay: Growth of human HCT15 cells at 0.3 uM after 48 hrs by SRB assay; conditions: HCT-15, 48 h
NCI-H23 [17] = assay: Growth of human NCI-H23 cells at 10 uM after 48 hrs by SRB assay; conditions: NCI-H23, 48 h
NCI-H23 [18] = assay: Growth of human NCI-H23 cells at 0.3 uM after 48 hrs by SRB assay; conditions: NCI-H23, 48 h
MDA-MB-231 [19] = assay: Growth of human MDA-MB-231 cells at 1 uM after 48 hrs by SRB assay; conditions: MDA-MB-231, 48 h
MDA-MB-231 [20] = assay: Growth of human MDA-MB-231 cells at 10 uM after 48 hrs by SRB assay; conditions: MDA-MB-231, 48 h
MDA-MB-231 [21] = assay: Growth of human MDA-MB-231 cells at 0.1 uM after 48 hrs by SRB assay; conditions: MDA-MB-231, 48 h
MDA-MB-231 [22] = assay: Growth of human MDA-MB-231 cells at 3 uM after 48 hrs by SRB assay; values are per cent of control; conditions: MDA-MB-231, 48 h
PC-3 [23] = assay: Growth inhibition of human PC3 cells at 1 uM after 48 hrs by SRB assay; values are per cent of control; conditions: PC-3, 48 h
PC-3 [24] = assay: Growth inhibition of human PC3 cells at 3 uM after 48 hrs by SRB assay; values are per cent of control; conditions: PC-3, 48 h
ACHN [25] = assay: Growth inhibition of human ACHN cells at 3 uM after 48 hrs by SRB assay; values are per cent of control
ACHN [26] = assay: Growth inhibition of human ACHN cells at 1 uM after 48 hrs by SRB assay; values are per cent of control
NUGC-3 [27] = assay: Growth inhibition of human NUGC3 cells at 3 uM after 48 hrs by SRB assay; values are per cent of control; conditions: NUGC-3, 48 h
PC-3 [28] = assay: Growth inhibition of human PC3 cells at 0.1 uM after 48 hrs by SRB assay; values are per cent of control; conditions: PC-3, 48 h
PC-3 [29] = assay: Growth inhibition of human PC3 cells at 0.3 uM after 48 hrs by SRB assay; values are per cent of control; conditions: PC-3, 48 h
HCT-15 [30] = assay: Growth inhibition of human HCT15 cells at 1 uM after 48 hrs by SRB assay; values are per cent of control; conditions: HCT-15, 48 h
NUGC-3 [31] = assay: Growth inhibition of human NUGC3 cells at 10 uM after 48 hrs by SRB assay; values are per cent of control; conditions: NUGC-3, 48 h
HCT-15 [32] = assay: Growth inhibition of human HCT15 cells at 10 uM after 48 hrs by SRB assay; values are per cent of control; conditions: HCT-15, 48 h
NCI-H23 [33] = assay: Growth inhibition of human NCI-H23 cells at 1 uM after 48 hrs by SRB assay; values are per cent of control; conditions: NCI-H23, 48 h
NCI-H23 [34] = assay: Growth inhibition of human NCI-H23 cells at 3 uM after 48 hrs by SRB assay; values are per cent of control; conditions: NCI-H23, 48 h
HCT-15 [35] = assay: Growth inhibition of human HCT15 cells at 0.1 uM after 48 hrs by SRB assay; values are per cent of control; conditions: HCT-15, 48 h
NCI-H23 [36] = assay: Growth inhibition of human NCI-H23 cells at 0.1 uM after 48 hrs by SRB assay; values are per cent of control; conditions: NCI-H23, 48 h
MDA-MB-231 [37] = assay: Growth inhibition of human MDA-MB-231 cells at 0.3 uM after 48 hrs by SRB assay; values are per cent of control; conditions: MDA-MB-231, 48 h

GI50 (NCI-H23 [1]) [µM]	GI50 (HCT-15 [2]) [µM]	Activity [3]	GI50 (ACHN [5]) [µM]	GI50 (MDA-MB-231 [6]) [µM]	GI50 (PC-3 [7]) [µM]	Compound	GI50 (NUGC-3 [4]) [µM]	growth, % of control at 10 µM (PC-3 [8]) [%]	growth, % of control at 1 µM (NUGC-3 [9]) [%]	growth, % of control at 10 µM (ACHN [10]) [%]	growth, % of control at 3 µM (HCT-15 [11]) [%]	growth, % of control at 0.1 µM (ACHN [12]) [%]	growth, % of control at 0.3 µM (ACHN [13]) [%]	growth, % of control at 0.1 µM (NUGC-3 [14]) [%]	growth, % of control at 0.3 µM (NUGC-3 [15]) [%]	growth, % of control at 0.3 µM (HCT-15 [16]) [%]	growth, % of control at 10 µM (NCI-H23 [17]) [%]	growth, % of control at 0.3 µM (NCI-H23 [18]) [%]	growth, % of control at 1 µM (MDA-MB-231 [19]) [%]	growth, % of control at 10 µM (MDA-MB-231 [20]) [%]	also measured
0.38	1.27	Active	0.54	0.75	0.22	CCCCCCCCCCCCCCS(=O)(=O)N(C)CCC[N+](C)(C)CC	0.13	-31.6	7.9	16.9	42.2	87.9	78.5	75.5	46.3	87.8	-16.9	79.8	55.2	7.1	growth, % of control at 0.1 µM (MDA-MB-231 [21]): 95.9%; growth, % of control at 3 µM (MDA-MB-231 [22]): 32.1%; growth, % of control at 1 µM (PC-3 [23]): 14.6%; growth, % of control at 3 µM (PC-3 [24]): -17%; growth, % of control at 3 µM (ACHN [25]): 31.4%; growth, % of control at 1 µM (ACHN [26]): 41.7%; growth, % of control at 3 µM (NUGC-3 [27]): -12.5%; growth, % of control at 0.1 µM (PC-3 [28]): 84.9%; growth, % of control at 0.3 µM (PC-3 [29]): 68.3%; growth, % of control at 1 µM (HCT-15 [30]): 68.9%; growth, % of control at 10 µM (NUGC-3 [31]): -18.3%; growth, % of control at 10 µM (HCT-15 [32]): 23%; growth, % of control at 1 µM (NCI-H23 [33]): 38.4%; growth, % of control at 3 µM (NCI-H23 [34]): 3%; growth, % of control at 0.1 µM (HCT-15 [35]): 106%; growth, % of control at 0.1 µM (NCI-H23 [36]): 96.4%; growth, % of control at 0.3 µM (MDA-MB-231 [37]): 91.4%
0.59	1.61	Active	1.3	0.99	0.34	CCCCCCCCCCCCCCS(=O)(=O)N(C)CC[N+](C)(C)CC	0.3	-12.3	43.3	25	41.1	105	104	96.8	95.6	96.8	16.3	94.6	63.1	18.2	growth, % of control at 0.1 µM (MDA-MB-231 [21]): 99%; growth, % of control at 3 µM (MDA-MB-231 [22]): 36.4%; growth, % of control at 1 µM (PC-3 [23]): 57.1%; growth, % of control at 3 µM (PC-3 [24]): 13.3%; growth, % of control at 3 µM (ACHN [25]): 50.1%; growth, % of control at 1 µM (ACHN [26]): 77.1%; growth, % of control at 3 µM (NUGC-3 [27]): 19%; growth, % of control at 0.1 µM (PC-3 [28]): 96.5%; growth, % of control at 0.3 µM (PC-3 [29]): 95.3%; growth, % of control at 1 µM (HCT-15 [30]): 76.3%; growth, % of control at 10 µM (NUGC-3 [31]): 10.1%; growth, % of control at 10 µM (HCT-15 [32]): 21.7%; growth, % of control at 1 µM (NCI-H23 [33]): 86.6%; growth, % of control at 3 µM (NCI-H23 [34]): 53.6%; growth, % of control at 0.1 µM (HCT-15 [35]): 98.2%; growth, % of control at 0.1 µM (NCI-H23 [36]): 92.5%; growth, % of control at 0.3 µM (MDA-MB-231 [37]): 91.6%
